Assay results from US20240132463A1, “SUBSTITUTED N-(2-(2,6-DIOXOPIPERIDIN-3-YL)-1,3-DIOXOISOINDOLIN-5-YL)ARYLSULFONAMIDE ANALOGS AS MODULATORS OF CEREBLON PROTEIN” (ST. JUDE CHILDREN'S RESEARCH HOSPITAL, INC., priority 2020, published 2024).

Tests used:
MDCKII-MDR1 cells = assay: MDCKII-MDR1 permeability assay; format: in vitro ADME; settings: permeability in MDCK-MDR1 cells
Method: High throughput […]1 permeability was performed in the Transwell® 0.4 μm polycarbonate membrane 96-well system with modified methods (Refs. 38-39). […]1 cells were maintained at 37° C. in a humidified incubator with an atmosphere of 5% CO2. The cells were cultured in 75 cm^2 flasks with Dulbecco's Modified Eagle's Medium (DMEM) containing 10% fetal bovine serum (FBS), 1% non-essential amino acids (NEAA), 100 units/ml of penicillin, and 100 μg/ml of streptomycin. The […]1 cells were seeded onto inserts at a density of 2×10^4 and 1×10^4 cells/insert separately. The medium in the wells was exchanged each other day, and the trans epithelial electrical resistance (TEER) value was measured using an epithelial volt-ohm meter (Millipore, Billerica, Massachusetts). […] For transport experiments, each cultured monolayer on the 96-well plate was washed twice with a transport buffer (HBSS/25 mM HEPES, pH 7.4). The permeability assay was initiated by the addition of each compound solution (10 μmol/L) into inserts (apical side, A) or receivers (basolateral side, B). The MDCKII-MDR1 cell monolayers were incubated for 1 hour at 37° C. Fractions were collected from receivers (if apical to basal permeability) or inserts (if basal to apical permeability), and concentrations were assessed by UPLC/MS (Waters; Milford, MA). All compounds were tested in triplicates. The A→B (or B→A) apparent permeability coefficients (Papp) of each compound were calculated using the equation, Papp=dQ/dt×1/AC0, where dQ/dt equals the flux of a drug across the monolayer, A equals the total insert well surface area, and C0 is the initial concentration of substrate in the donor compartment. The efflux ratio was determined by dividing the Papp in the B-A direction by the Papp in the A-B direction.

[1] = Pharmacokinetics (PK) study in CD1 mice; format: in vivo, mouse
Method: Healthy female CD1 mice (8-12 weeks old) weighing between 20 to 30 g were procured from Global, India. Three mice were housed in each cage. Temperature and humidity were maintained at 22±3° C. and 30-70%, respectively and illumination was controlled to give a sequence of 12 hr light and 12 hr dark cycle. Temperature and humidity were recorded by auto-controlled data logger system. All the animals were provided laboratory rodent diet (Envigo Research private Ltd, Hyderabad). Reverse osmosis water treated with ultraviolet light was provided ad libitum. Formulation vehicle: 5% v/v NMP: 5% v/v Solute HS-15 and 90% v/v normal saline. […] The dosing volume for intravenous was 5 mL/kg and for oral administration 10 mL/kg. Blood samples (approximately 60 μL) were collected under light isoflurane anesthesia (Surgivet®) from retro orbital plexus from a set of three mice at 0.08 (for IV only), 0.25, 0.5, 1, 2, 4, 6 (for PO only), 8, 12 and 24 hr. Immediately after blood collection, plasma was harvested by centrifugation at 4000 rpm, 10 min at […] and samples were stored at −70±10° C. until bioanalysis. […] Non-Compartmental-Analysis tool of Phoenix WinNonlin® (Version 8.0) was used to assess the pharmacokinetic parameters. Peak plasma concentration (Cmax) and time for the peak plasma concentration (Tmax) were the observed values. The areas under the concentration time curve (AUClast and AUCinf) were calculated by linear trapezoidal rule. The terminal elimination rate constant, ke was determined by regression analysis of the linear terminal portion of the log plasma concentration-time curve. Clearance was estimated as Dose/AUCinf and Vss as CL*MRT. The oral bioavailability was calculated as ratio of dose normalized AUC of oral and intravenous group multiplied by 100.

[2] = Plasma protein binding assay (mouse); format: in vitro ADME
Method: (§1) Stock solutions were prepared at 10 mM in DMSO. Dulbecco's phosphate buffered saline (DPBS; pH 7.4) was obtained from Invitrogen (Carlsbad, CA). Single-Use RED (rapid equilibrium dialysis) device was obtained from Thermo scientific (Rockford, IL). Human and mouse plasma were obtained from GeneTex (Irvine, CA). Sample preparation for plasma protein binding was modified from Waters' method (see Waters, N.J., et al., J Pharm Sci. 2008 October; 97(10):4586-95). The Teflon base plate with the RED inserts was used without any pre-conditioning the membrane inserts. Plasma was thawed and centrifuged at 1000 rpm for 10 min to remove any particulates. Each compound was prepared at 10 μM in human or mouse plasma. Spiked plasma solutions (300 μL) were placed into the sample chamber (indicated by the red ring) and 500 μL of DPBS into the adjacent chamber. The plate was sealed and incubated at 37° C. on an orbital shaker (100 rpm) for 4 hours. After incubation, the seal was removed from the RED plate and the volume of the insert confirmed-little to no volume change occurred. […] The test compound concentrations were quantified in both buffer and plasma chambers via peak areas relative to the internal standard. The percentage of the test compound bound to plasma was calculated on following equations: % Free=(Concentration buffer chamber/concentration plasma chamber)×100% and % Bound=100%-% Free.

MV4-11 cells = assay: MV-4-11 cell viability assay; format: cell-based, human; settings: 72 hours, Cell Titer Glo
Method: MV-4-11 cell line was purchased from the American Type Culture Collection (ATCC, Manassas, VA). The cells were cultured according to recommendations in IMDM cell culture media (ATCC). Exponentially growing MV-4-11 cells were plated at 1,000 cells per well in Corning 8804BC white 384-well assay plates and incubated overnight at 37° C. in a humidified 5% CO2 incubator. Compounds were transferred to the assay plate from a dose-response plate using a Pintool on a Biomek FXP Laboratory Automation Workstation (Beckman Coulter). Cytotoxicity was determined following 72 hours of incubation using Promega Cell Titer Glo reagent according to the manufacturer's recommendation. Luminescence was measured on an Envision plate reader (Perkin-Elmer).
Compounds were screened in human cancer cell lines and each cell line was cultured in the complete medium recommended by the vendor and seeded in Corning 8804BC white 384-well assay plates at density of 1,000, 1,000, 1,000, 1,500 and 7,500 cells per well, for MV4-11, HD-MB03, MB004, MB002 and MHH-CALL4 cells respectively. After overnight incubation at 37° C. in a humidified 5% CO2 incubator, cells were treated with compounds in dose-response format using a Pintool on a Biomek FXP Laboratory Automation Workstation (Beckman Coulter). […] After 72 h incubation, cell proliferation was assessed using Cell Titer-Glo (CTG) luminescent cell viability assay (Promega) according to the manufacturer's instruction. Luminescence signal was measured using an Envision plate reader (Perkin-Elmer).

caspase 3/7 = assay: Caspase 3/7 activity assay; format: cell-based, human; settings: MV4-11 cells, Caspase-Glo, 4, 8 and 24 hours, 10 and 100 nM
GSPT1 = GSPT1 (Homo sapiens (Human), UniProt P15170+Q96SW2); assay: GSPT1 degradation by immunoblot in MV4-11 cells; format: cell-based; settings: MV4-11 cells, 4 hours, at 100 nM
Sequence of GSPT1 (P15170 whole entry): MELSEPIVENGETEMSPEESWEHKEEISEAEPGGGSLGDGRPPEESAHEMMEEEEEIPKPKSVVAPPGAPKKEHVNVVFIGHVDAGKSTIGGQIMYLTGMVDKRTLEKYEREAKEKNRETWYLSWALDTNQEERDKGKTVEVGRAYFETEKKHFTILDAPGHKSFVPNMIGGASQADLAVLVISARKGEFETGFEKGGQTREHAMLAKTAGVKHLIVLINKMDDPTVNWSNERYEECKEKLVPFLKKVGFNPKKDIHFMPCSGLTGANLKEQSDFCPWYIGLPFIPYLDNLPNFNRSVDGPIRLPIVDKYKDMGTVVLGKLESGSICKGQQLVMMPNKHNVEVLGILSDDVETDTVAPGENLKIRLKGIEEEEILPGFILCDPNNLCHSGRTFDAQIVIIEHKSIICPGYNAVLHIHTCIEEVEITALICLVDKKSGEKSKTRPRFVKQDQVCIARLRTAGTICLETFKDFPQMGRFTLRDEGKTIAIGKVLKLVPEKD
Sequence of GSPT1 (Q96SW2 whole entry): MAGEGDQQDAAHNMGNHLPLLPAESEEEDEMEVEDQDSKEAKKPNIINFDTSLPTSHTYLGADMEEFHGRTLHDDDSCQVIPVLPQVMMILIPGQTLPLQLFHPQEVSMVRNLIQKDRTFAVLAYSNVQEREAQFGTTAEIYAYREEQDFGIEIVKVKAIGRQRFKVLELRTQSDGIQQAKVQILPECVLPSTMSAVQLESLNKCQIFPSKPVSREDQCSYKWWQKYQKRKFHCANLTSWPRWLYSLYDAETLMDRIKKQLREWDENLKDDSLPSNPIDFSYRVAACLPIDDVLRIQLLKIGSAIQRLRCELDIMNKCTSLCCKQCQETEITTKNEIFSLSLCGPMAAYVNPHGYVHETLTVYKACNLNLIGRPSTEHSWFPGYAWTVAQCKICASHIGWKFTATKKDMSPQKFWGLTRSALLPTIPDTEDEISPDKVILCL
Sequence of GSPT1 (Q16531 whole entry partner): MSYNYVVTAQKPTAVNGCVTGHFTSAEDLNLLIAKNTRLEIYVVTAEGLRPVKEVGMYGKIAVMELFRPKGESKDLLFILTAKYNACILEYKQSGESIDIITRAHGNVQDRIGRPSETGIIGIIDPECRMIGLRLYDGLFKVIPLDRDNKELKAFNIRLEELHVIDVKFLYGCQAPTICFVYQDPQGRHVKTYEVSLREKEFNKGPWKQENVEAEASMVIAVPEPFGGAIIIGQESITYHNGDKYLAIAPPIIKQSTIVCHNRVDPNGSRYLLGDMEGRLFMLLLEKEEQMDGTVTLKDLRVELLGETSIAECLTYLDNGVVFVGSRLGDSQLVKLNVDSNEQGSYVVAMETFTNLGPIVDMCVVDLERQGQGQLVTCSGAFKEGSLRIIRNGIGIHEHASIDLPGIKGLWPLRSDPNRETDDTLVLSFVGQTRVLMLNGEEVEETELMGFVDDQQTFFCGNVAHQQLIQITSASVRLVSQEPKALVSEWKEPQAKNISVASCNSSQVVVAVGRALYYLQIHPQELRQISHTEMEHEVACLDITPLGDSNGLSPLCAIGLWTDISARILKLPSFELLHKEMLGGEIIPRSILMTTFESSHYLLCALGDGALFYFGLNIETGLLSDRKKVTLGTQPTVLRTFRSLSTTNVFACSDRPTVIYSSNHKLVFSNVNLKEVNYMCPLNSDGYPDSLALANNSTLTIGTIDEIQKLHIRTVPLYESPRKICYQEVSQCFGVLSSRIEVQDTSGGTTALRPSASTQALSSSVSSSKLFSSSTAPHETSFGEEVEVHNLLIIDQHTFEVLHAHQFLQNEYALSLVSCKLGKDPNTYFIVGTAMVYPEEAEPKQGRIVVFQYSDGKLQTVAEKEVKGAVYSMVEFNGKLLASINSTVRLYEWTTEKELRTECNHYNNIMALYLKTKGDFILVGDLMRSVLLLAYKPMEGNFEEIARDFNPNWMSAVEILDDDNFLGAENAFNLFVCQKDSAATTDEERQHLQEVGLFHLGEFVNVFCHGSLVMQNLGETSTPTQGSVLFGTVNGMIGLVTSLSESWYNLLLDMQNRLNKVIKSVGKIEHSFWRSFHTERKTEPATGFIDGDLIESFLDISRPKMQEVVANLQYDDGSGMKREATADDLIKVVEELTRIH
Method: MV4-11 cells were seeded in 6-well plates (1×10^6 cells per well). After overnight incubation, the cells were treated with indicated concentrations for specific timepoints. […] After blocking the membrane with LI-COR TBS blocking buffer and incubation in primary antibody overnight, the corresponding protein signals were detected using IRDye secondary antibodies and Odyssey Imaging System. Image Studio Lite Ver 5.2 was used for blot quantification. […] IRDye® 800CW Goat anti-Mouse IgG Secondary Antibody and IRDye® 68ORD Goat anti-Rabbit IgG Secondary Antibody were used as secondary antibodies.

[3] = Plasma protein binding assay (human); format: in vitro ADME
Method: as §1

Question: Which Papp (MDCKII-MDR1 cells) does the source give for `O=C1CCC(N2C(=O)c3ccc(NS(=O)(=O)c4ccccc4OC(F)(F)F)cc3C2=O)C(=O)N1` (stereo not shown) [Compound 1, N-(2-(2,6-dioxopiperidin-3-yl)-1,3-dioxoisoindolin-5-yl)-2-(trifluoromethoxy)benzenesulfonamide] here?
Answer: The Papp was 2.3 ×10⁻⁶ cm/s.

Question: What about the clearance ([1]; 3 mg/kg IV) of the same molecule?
Answer: The clearance was 0.46 mL/min/kg.

Question: And the volume of distribution ([1]; 3 mg/kg IV)?
Answer: The volume of distribution was 0.15 L/kg.

Question: What about the oral bioavailability ([1]; 10 mg/kg PO vs 3 mg/kg IV) of the same molecule?
Answer: Its oral bioavailability is 84%.

Question: And the half-life ([1]; female, CD1, mouse, plasma, 3 mg/kg IV, read-out: terminal elimination half-life (t1/2) (converted))?
Answer: The half-life was 3.4 h.

Question: And the Plasma protein binding [2]?
Answer: Its Plasma protein binding is 99.3%.

Question: And the “MV4-11 EC50” value (MV4-11 cells)?
Answer: The value was “among the most potent”.

Question: What about the caspase activation (caspase 3/7) of the same molecule?
Answer: The caspase activation was “measurable at 8 hours”.

Question: And the GSPT1 protein degradation (GSPT1)?
Answer: Its GSPT1 protein degradation is 90%.

Question: And the Plasma protein binding [3]?
Answer: Its Plasma protein binding is 99.1%.
